Data: patent US20210238225A1, “PEPTIDOMIMETIC INHIBITORS OF THE PEPTIDYL-PROLYL CIS/TRANS ISOMERASE (PIN1)” (DANA-FARBER CANCER INSTITUTE, INC., priority 2018, published 2021)
Non-standard residues stand in square brackets, D forms with d. Residues, ends and D or L forms follow the SMILES beside them. *: point of attachment. 2Nal = N[C@@H](Cc1ccc2ccccc2c1)C(=O)O; NH(4-Me-benzyl) = Cc1ccc(CN*)cc1; Cit = NC(=O)NCCC[C@H](N)C(=O)O; Pip = O=C(O)[C@@H]1CCCCN1; X3 = C=CS(=O)(=O)*; ClAc = O=C(CCl)*; X1 = O=C(C1CO1)*

What was measured:
Pin1 Cys 113 = Pin1 Cys 113 (Homo sapiens, UniProt Q13526); assay: Covalent labeling (intact MS); type: binding; details: purified Pin1 with 5 μM inhibitor, 0-3 hr
Description: 5 μg of purified Pin1 protein in 50 μL of 20 mM HEPES pH 7.5 and 75 mM NaCl was incubated with 5 μM of respective Pin1 inhibitors for 0-3 hr. A Shimadzu XR HPLC was used to inject the entire sample onto a self-packed reverse-phase column (1/32 in outer diameter×500 μm inner diameter, 5 cm of POROS 50R2 resin). After desalting, protein was eluted with an HPLC gradient (0%-100% B in 4 min, A=0.2 M acetic acid in water, B=0.2 M acetic acid in acetonitrile, flow rate=10 μl/min) into a LTQ XL mass spectrometer (Thermo Fisher Scientific, San Jose, Calif., USA). LTQ XL MS spectra were acquired in centroid mode using the electron multipliers for ion detection. Mass spectra were deconvoluted using MagTran1.03b2 software (Zhang and Marshall, J. Am. Soc. Mass Spectrom. 9:225-233 (1998)).

Pin1 [1] = target: T1, Pin1 (Homo sapiens, UniProt Q13526); assay: X-ray crystallography; set-up: A construct of full-length human Pin1 in a pET28 vector; made in house; host or cells: E. coli BL21 (DE3)
Description: A construct of full-length human Pin1 in a pET28 vector was overexpressed in E. coli BL21 (DE3) in LB medium in the presence of […] of kanamycin. Cells were grown at 37° C. to an OD of 0.8, cooled to 17° C., induced with 500 μM isopropyl-1-thio-D-galactopyranoside, incubated overnight at 17° C., collected by centrifugation, and stored at −80° C. Cell pellets were sonicated in buffer A (50 mM hepes 7.5, 300 mM NaCl, 10% glycerol, 10 mM Imidazole, and 3 mM 2-mercaptoethanol (BME) and the resulting lysate was centrifuged at 30,000×g for 40 min. Ni-NTA beads (Qiagen) were mixed with lysate supernatant for 30 min and washed with buffer A. Beads were transferred to an FPLC-compatible column and the bound protein was washed with 15% buffer B (50 mM hepes 7.5, 300 mM NaCl, 10% glycerol, 300 mM imidazole, and 3 mM BME) and eluted with 100% buffer B. Thrombin was added to the eluted protein and incubated at 4° C. overnight. The sample was concentrated and passed through a Superdex® 200 10/300 column (GE healthcare) in a buffer containing 20 mM hepes 7.5, 150 mMNaCl, 5% glycerol, 3 mM DTT, and 1 mM tris(2-carboxyethyl)phosphine (TCEP). Fractions were pooled, concentrated to approximately 37 mg/ml and frozen at −80° C.
Apo protein at a final concentration of 1 mM was crystallized by sitting-drop (200 nL+200 nL) vapor diffusion at 20° C. in the following crystallization buffer: 3 M (NH4)2SO4, 100 mM BisTris-pH 7.0, 1% PEG400, and 1 mM DTT. A volume of 200 nL of 1 mM compound 2b-6 was added directly to crystals for soaking at 20° C. for 16 hrs. Crystals were transferred briefly into crystallization buffer containing 25% glycerol prior to flash-freezing in liquid nitrogen.
Diffraction data from complex crystals were collected at beamline 24ID-E of the NE-CAT at the Advanced Photon Source (Argonne National Laboratory). Data sets were integrated and scaled using XDS (Kabsch, Acta Crystallogr. D Biol. Crystallogr. D66: 133-144 (2010)). […]

Pin1 (GST-Pin1) [2] = target: T2, Pin1 (GST-Pin1) (Homo sapiens, UniProt Q13526); assay: Chymotrypsin-coupled PPIase assay, inhibition of isomerase activity; type: biochemical; details: 12 hours pre-incubation at 4° C.; Cheng-Prusoff equation; read-out: Ki, μM (PPlase Assay)
Description: Inhibition of Pin1 isomerase activity was determined using the chymotrypsin-coupled PPIase assay, using GST-Pin1 and Suc-Ala-pSer-Pro-Phe-pNA peptide substrate ([…]), as described previously (Yaffe et al., Science 275:1957-1960 (1997)). GST-Pin1 was pre-incubated with the indicated concentrations of compound for 12 hours at 4° C. in buffer containing 35 mM HEPES (pH 7.8), 0.2 mM DTT, and 0.1 mg/mL bovine serum albumin (BSA). Immediately before the assay was started, chymotrypsin (final concentration 6 mg/mL), followed by the peptide substrate (Suc-Ala-pSer-Pro-Phe-pNA peptide substrate, final concentration […]) was added. The Ki value obtained from the PPIase assay was derived from the Cheng-Prusoff equation, Ki=IC50/(1+S/Km), where Km is the Michaelis constant for the used substrate, S is the initial concentration of the substrate in the assay, and IC50 is the […] inhibitory concentration of the inhibitor.

Pin1 [3] = target: T1, Pin1; assay: Lysate target engagement (pull down with biotinylated probes; competition assay); type: binding; set-up: endogenous in cells; host or cells: MDA-MB-231; details: for Lysate Target Engagement?: TNBC-MDA-MB-231 lysate, biotin/dtb probes: pull down, others: competition, concentration under E5
Description: (§1) TNBC-MDA-MB-231 cells were lysed in lysis buffer (50 mM Hepes pH 7.5, 150 mM NaCl, 1 mM ethylenediaminetetraacetic acid (EDTA), 10% v/v glycerol, 0.5% v/v NP-40, protease inhibitors (Roche)). After clarifying by centrifugation (14,000 rpm for 15 min at 4° C.), lysates were incubated with the indicated concentrations of candidate compound for 1 hour at 4° C. (500 μg of protein per sample, as determined by BCA). Lysates were then incubated with streptavidin agarose resin (30 μL of 1:1 beads: lysis buffer slurry) (Thermo Scientific™, cat. #20349) for 2 hours at 4° C. Beads were washed 4 times with 500 μL of washing buffer (50 mM Hepes, pH 7.5, 10 mM NaCl, 1 mM EDTA, 10% glycerol), then pelleted by centrifugation and dried. The beads were then boiled at 95° C. for 5 minutes in 30 μL of 2× LDS+10% β-mercaptoethanol. Lysates were probed for specified proteins by western blotting using the Bolt system (Life Technologies™).
as §1, with “mM EDTA,” for “mM ethylenediaminetetraacetic acid (EDTA),”, “by centrifugation,” for “by centrifugation (14,000 rpm for 15 min at 4° C.),”, “were pre-incubated” for “were incubated”, “of” for “of candidate”, “compound 18 overnight” for “compound for 1 hour”, “BCA). The lysates were then incubated with 1 μM of compound 2c (desthiobiotin probe) for 1 hour at 4° C.” for “BCA).”

Pin1 (GST-Pin1) [4] = target: T2, Pin1 (GST-Pin1); assay: Fluorescence polarization (FP) assay, binding to Pin1; details: competition with fluorescein-labeled peptide probe; 12 hours pre-incubation at 4° C.; Kenakin Ki equation; read-out: Ki, μM (FP Assay)
Pin1 [5] = target: T1, Pin1; assay: Cellular target engagement, live cell biotin competition assay in TNBC MDA-MB-231 cells; type: cell-based; set-up: endogenous in cells; host or cells: MDA-MB-231; details: TNBC MDA-MB-231 cells; for Cellular Target Engagement?: 5 hours treatment, concentration under E7
Description: TNBC MDA-MB-231 cells were plated in 10 cm plates with 2.5 million cells per plate in 6 mL of media. The day after plating, cells were treated with the indicated concentrations of compound 18 for 5 hours. The cells were washed 2× with 0.9% NaCl (1 mL per 10 cm plate), and collected by scraping with a cell scraper. Cells were lysed in lysis buffer (50 mM Hepes pH 7.5, 150 mM NaCl, 1 mM EDTA, 10% v/v glycerol, 0.5% v/v […], protease inhibitors (Roche)) using 210 μL of cell lysis buffer per 10 cm plate of cells. After clarifying by centrifugation (14,000 rpm for 15 min at 4° C.), 5 μL of each lysate sample was combined with 5 μL of 2× LDS+10% β-mercaptoethanol, boiled for 5 minutes, and set aside for the input loading control (later to be loaded directly in the gel). Then, 200 μL of each lysate was then incubated with 1 μM of compound 2-32 (biotin probe compound) for 1 hour at 4° C. Lysates were then incubated with streptavidin agarose resin (30 μL of 1:1 beads: lysis buffer slurry) (Thermo Scientific™, cat. #20349) for 2 hours at 4° C. Beads were washed 4 times with 500 μL of washing buffer (50 mM Hepes, pH7.5, 10 mM NaCl, 1 mM EDTA, 10% glycerol), then pelleted by centrifugation and dried. The beads were then boiled at 95° C. for 5 minutes in 30 μL of 2× LDS+10% β-mercaptoethanol. Lysates were probed for specified proteins by western blotting using the Bolt system (Life Technologies™).

T1 sequence (Q13526 whole entry): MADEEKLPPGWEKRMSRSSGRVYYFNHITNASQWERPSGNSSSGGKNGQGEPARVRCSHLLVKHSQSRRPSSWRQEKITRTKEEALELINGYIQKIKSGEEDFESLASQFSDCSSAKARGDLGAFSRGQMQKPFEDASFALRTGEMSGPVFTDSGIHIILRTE
T2 sequence (Q13526 whole entry): as above
Sequence of Pin1 Cys 113 (Q13526 whole entry): as above

Compound | Ki (Pin1 (GST-Pin1) [2]) [µM] | Lysate Target Engagement? (Pin1 [3]) | Lysate Target Engagement? concentration stated for the engagement or pull down (Pin1 [3]; read with the E4 line of the same compound (complete, partial, probe pull down)) | Ki (Pin1 (GST-Pin1) [4]) [µM] | Covalent? (In tact MS), % labeling (Pin1 Cys 113) | X-Ray Crystal Structure? (Pin1 [1]) | Cellular Target Engagement? (Pin1 [5]) | Cellular Target Engagement? concentration stated for complete engagement (Pin1 [5]; read with the E6 line)
NC(=O)CC[C@H](NC(=O)[C@H](Cc1ccc2ccccc2c1)NC(=O)[C@@H]1CCCCN1C(=O)[C@H](CCC(=O)O)NC(=O)CCl)C(N)=O [Compound 2b-3, (S)-4-(2-Chloroacetamido)-5-((S)-2-(((S)-1-(((S)-1,5-diamino-1,5-dioxopentan-2-yl)amino)-3-(naphthalen-2-yl)-1-oxopropan-2-yl)carbamoyl)piperidin-1-yl)-5-oxopentanoic acid] (ClAc-E[Pip][2Nal]Q-NH2) |  |  |  |  | Yes (81% | Yes |  | 
NC(=O)NCCC[C@H](NC(=O)[C@H](Cc1ccc2ccccc2c1)NC(=O)[C@@H]1CCCCN1C(=O)[C@H](CCC(=O)O)NC(=O)C1CO1)C(N)=O (stereo partly drawn) [Compound 3b-1, (4S)-5-((S)-2-(((S)-1-(((S)-1-Amino-1-oxo-5-ureidopentan-2-yl)amino)-3-(naphthalen-2-yl)-1-oxopropan-2-yl)carbamoyl)piperidin-1-yl)-4-(oxirane-2-carboxamido)-5-oxopentanoic acid] (X1-E[Pip][2Nal][Cit]-NH2) |  | No |  | 1.61 | Yes (93% |  | No | 
Cc1ccc(CNC(=O)[C@H](CCCNC(N)=O)NC(=O)[C@H](Cc2c[nH]c3ccccc23)NC(=O)[C@@H]2CCCCN2C(=O)[C@H](Cc2ccccc2)NC(=O)CCl)cc1 [Compound 11-23, (S)—N—((S)-3-(1H-indol-3-yl)-1-(((S)-1-((4-methylbenzyl)amino)-1-oxo-5-ureidopentan-2-yl)amino)-1-oxopropan-2-yl)-1-((2-chloroacetyl)-L-phenylalanyl)piperidine-2-carboxamide] (ClAc-F[Pip]W[Cit]-{NH(4-Me-benzyl)}) |  |  |  | 0.004 | Yes (100% |  | Yes-Complete | at 10 μM

Further lines, with some results ahead:

Ki (Pin1 (GST-Pin1) [2]) [µM] | Lysate Target Engagement? (Pin1 [3]) | Lysate Target Engagement? concentration stated for the engagement or pull down (Pin1 [3]; read with the E4 line of the same compound (complete, partial, probe pull down)) | Ki (Pin1 (GST-Pin1) [4]) [µM] | Compound | Covalent? (In tact MS), % labeling (Pin1 Cys 113) | X-Ray Crystal Structure? (Pin1 [1]) | Cellular Target Engagement? (Pin1 [5]) | Cellular Target Engagement? concentration stated for complete engagement (Pin1 [5]; read with the E6 line)
0.021 | Yes-Complete | at 10 μM |  | NC(=O)NCCC[C@H](NC(=O)[C@H](Cc1ccc2ccccc2c1)NC(=O)[C@@H]1CCCCN1C(=O)[C@H](CCC(=O)O)NC(=O)CCl)C(N)=O [Compound 2b-13, (S)-5-((S)-2-(((S)-1-(((S)-1-Amino-1-oxo-5-ureidopentan-2-yl)amino)-3-(naphthalen-2-yl)-1-oxopropan-2-yl)carbamoyl)piperidin-1-yl)-4-(2-chloroacetamido)-5-oxopentanoic acid] (ClAc-E[Pip][2Nal][Cit]-NH2) |  |  |  | 
 | No |  | 0.35 | C=CS(=O)(=O)N[C@@H](CCC(=O)O)C(=O)N1CCCC[C@H]1C(=O)N[C@@H](Cc1ccc2ccccc2c1)C(=O)N[C@@H](CCCNC(N)=O)C(N)=O [Compound 4, (S)-5-((S)-2-(((S)-1-(((S)-1-Amino-1-oxo-5-ureidopentan-2-yl)amino)-3-(naphthalen-2-yl)-1-oxopropan-2-yl)carbamoyl)piperidin-1-yl)-5-oxo-4(vinylsulfonamido)pentanoic acid] (X3-E[Pip][2Nal][Cit]-NH2) | Yes (93% |  |  | 
